# Measured values: patent US10624875B2, “Methods and compositions for treating schizophrenia” (The Johns Hopkins University, priority 2012, dated 2020)
# Assays:
# [1] = system: Age-Impaired (AI) Long-Evans rats; assay: Morris Water Maze (MWM) retention trial, spatial memory; assay type: in vivo, rat; conditions: retention trial 24 hours after two training days
# Description: The MWM apparatus consists of a large, circular pool (diameter 1.83 m; height, 0.58 m) filled with water (27° C.) that is made opaque through the addition of non-toxic pigment or some other substance. In the typical “hidden platform” version of the test, rats are trained to find a camouflaged white escape platform (height, 34.5 cm) that is positioned in the center of one quadrant of the maze about 1.0 cm below the water surface. This platform can be retracted to the bottom of the tank or raised to its normal position from outside the maze during behavioral testing. The location of the platform remains constant from trial to trial. Because there are no local cues that mark the position of the platform, the rat's ability to locate it efficiently from any starting position at the perimeter of the pool depends on using information surrounding the maze. The maze is surrounded by black curtains to which white patterns are affixed to provide a configuration of spatial cues. A second platform (height 37.5 cm), with its surface painted black is elevated 2 cm above the water surface during cue training to control for factors unrelated to cognition. The behavior of a rat in the pool is recorded by a camera that is suspended 2.5 m above the center of the pool. […] At the completion of the protocol using the hidden platform, rats are assessed for cue learning using the visible platform. […]
# entorhinal cortex (EC) = assay: fMRI activity during explicit 3-alternative forced choice task, entorhinal cortex; assay type: in vivo, human; conditions: aMCI subjects, 125 mg twice a day for two weeks, versus placebo
# Description: (§1) A within-subjects trial of 8 weeks duration, involving 17 amnestic MCI (aMCI) subjects and 17 age-matched controls with a low dose treatment of levetiracetam is conducted. During the course of the study, each aMCI subject receives both drug and placebo treatments separately in two periods of two weeks each, with the order of treatments among different aMCI subjects counterbalanced (see FIG. 7). Age-matched control subjects treated with placebo serve as a further control. Cognitive testing and fMRI imaging data are obtained from the subjects after each two week period of drug/placebo treatment. As described above, the drug treatment period is the two weeks preceding Visit 1 or 2 (with the two week period preceding the other Visit being the placebo phase). […] Imaging data are obtained through high-resolution methods developed in the Stark laboratory. Data are collected on a Phillips 3 Tesla scanner (Eindhoven, The Netherlands) equipped with an 8-channel SENSE (Sensitivity Encoding) head coil, located at the F.M. Kirby Research Center for Functional Brain Imaging at the Kennedy Krieger Institute (Baltimore, Md.). […] Group data are analyzed using a two-way Analysis of Variance (ANOVA) with trial types and group as fixed factors, and subject as a random factor nested within group. […]
# DG/CA3 = assay: fMRI activity during explicit 3-alternative forced choice task, DG/CA3; assay type: in vivo, human; conditions: aMCI subjects, 125 mg twice a day for two weeks, versus placebo
# Description: as §1
structure (smiles),measurement,setting,value
"CC[C@@H](C(N)=O)N1CCCC1=O [levetiracetam, (2S)-2-(2-oxopyrrolidin-1-yl) butanamide]",time spent in the target quadrant versus vehicle-treated controls,[1]; 5 mg/kg/day i.p.,did not significantly improve
same,time spent in the target annulus,[1]; 10 mg/kg/day i.p.,effectiveness of the 10 mg/kg/day levetiracetam treatment was also seen
same,EC activity during memory judgments,entorhinal cortex (EC),increases EC activity
same,DG/CA3 activity during lure stimuli correctly identified as similar,DG/CA3,reduces DG/CA3 hyper-activity
